The numbers were not newly measured in patent publication EP4752146A1, “NOVEL CA[…] CARRIER-DRUG CONJUGATE COMPRISING SAME” (priority 2023, dated 2025), which cites them from elsewhere.

The structures appear in SMILES notation.

This data set has as its system cancer cells. To be noted: background.

Turning to `CC[C@@]1(O)C(=O)OCc2c1cc1n(c2=O)Cc2c-1nc1cc(F)c(C)c3c1c2[C@@H](NC(=O)CO)CC3` [DXd], the “activity in cancer cells relative to SN-38” value (higher than SN-38) was “approximately 10 fold”.
As to `CCc1c2c(nc3ccc(O)cc13)-c1cc3c(c(=O)n1C2)COC(=O)[C@]3(O)CC` [SN-38], the IC50 entry (various cell lines) is listed as “nanomolar range”.
